Reference: patent US8415469B2, “Compounds and methods for kinase modulation, and indications therefor” (Plexxikon Inc., priority 2005, dated 2013)

Tests used:
Assay type in all cases: biochemical
[1] = target: T1, B-Raf (Homo sapiens, UniProt P15056); test: AlphaScreen kinase assay, B-Raf; details: read-out: IC50, activity toward kinase B-Raf
T1 construct: purchased Upstate Biotechnology

[2] = target: T2, Btk (Homo sapiens, UniProt Q06187); test: Z'-Lyte FRET kinase assay (Invitrogen), Btk; details: read-out: IC50, activity toward kinase Btk
T2 construct: purchased Invitrogen (assay run by Invitrogen)

[3] = target: T3, c-Raf-1 (Homo sapiens, UniProt P04049); test: AlphaScreen kinase assay, c-Raf-1; details: read-out: IC50, activity toward kinase c-Raf-1
T3 construct: purchased Upstate Biotechnology

[4] = target: T4, EphB2 (Homo sapiens, UniProt P29323); test: Z'-Lyte FRET kinase assay (Invitrogen), EphB2; details: read-out: IC50, activity toward kinase EphB2
T4 construct: purchased Invitrogen (assay run by Invitrogen)
T4 sequence (P29323 19-1055): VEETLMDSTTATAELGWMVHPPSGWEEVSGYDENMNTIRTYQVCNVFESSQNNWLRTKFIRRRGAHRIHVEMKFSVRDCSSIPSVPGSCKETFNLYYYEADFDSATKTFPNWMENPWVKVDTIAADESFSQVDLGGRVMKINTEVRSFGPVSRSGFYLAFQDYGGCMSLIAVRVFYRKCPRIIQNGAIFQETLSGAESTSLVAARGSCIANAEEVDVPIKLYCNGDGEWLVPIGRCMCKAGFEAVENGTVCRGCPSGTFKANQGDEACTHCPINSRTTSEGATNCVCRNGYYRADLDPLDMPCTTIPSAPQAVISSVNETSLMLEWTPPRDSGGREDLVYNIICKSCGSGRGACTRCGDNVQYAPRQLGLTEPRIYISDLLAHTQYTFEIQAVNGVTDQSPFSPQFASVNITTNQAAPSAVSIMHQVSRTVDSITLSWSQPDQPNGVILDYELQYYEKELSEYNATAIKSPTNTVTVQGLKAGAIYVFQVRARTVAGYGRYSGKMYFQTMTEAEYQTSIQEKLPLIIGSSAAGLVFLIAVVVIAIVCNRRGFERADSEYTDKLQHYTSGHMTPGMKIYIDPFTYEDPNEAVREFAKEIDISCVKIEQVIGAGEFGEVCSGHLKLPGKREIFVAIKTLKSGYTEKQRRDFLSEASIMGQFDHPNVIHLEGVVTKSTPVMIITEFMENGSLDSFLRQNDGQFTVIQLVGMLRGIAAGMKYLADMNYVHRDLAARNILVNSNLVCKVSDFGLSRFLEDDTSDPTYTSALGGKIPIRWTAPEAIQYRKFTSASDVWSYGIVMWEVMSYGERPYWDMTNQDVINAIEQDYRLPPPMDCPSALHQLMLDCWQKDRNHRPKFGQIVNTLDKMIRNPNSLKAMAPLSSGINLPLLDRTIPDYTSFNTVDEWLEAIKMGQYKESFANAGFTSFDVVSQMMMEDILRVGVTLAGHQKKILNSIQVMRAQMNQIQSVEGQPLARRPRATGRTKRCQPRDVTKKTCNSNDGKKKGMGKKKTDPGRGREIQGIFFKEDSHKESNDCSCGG
Method in brief: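 10 μM ATP, 2 μM peptide, 1% DMSO final; HEPES pH 7.5 buffer with MgCl2/EGTA/BRIJ-35. Kinase rxn 1 h RT, protease development 1 h RT, stop, read donor/acceptor ratio. Compound titrated.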

[5] = target: Akt3 (Homo sapiens, UniProt Q9Y243); test: AlphaScreen kinase assay, Akt3; details: read-out: IC50, activity toward kinase Akt3
Method in brief: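 AlphaScreen read-out: acceptor-bead emission falls when kinase is inhibited. Biotin-peptide substrate captured on streptavidin donor beads, phospho-specific antibody on acceptor beads. 8 concentrations, 1:3 dilution series, from 20 mM DMSO stocks.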

Chain of Akt3 (Q9Y243 whole entry): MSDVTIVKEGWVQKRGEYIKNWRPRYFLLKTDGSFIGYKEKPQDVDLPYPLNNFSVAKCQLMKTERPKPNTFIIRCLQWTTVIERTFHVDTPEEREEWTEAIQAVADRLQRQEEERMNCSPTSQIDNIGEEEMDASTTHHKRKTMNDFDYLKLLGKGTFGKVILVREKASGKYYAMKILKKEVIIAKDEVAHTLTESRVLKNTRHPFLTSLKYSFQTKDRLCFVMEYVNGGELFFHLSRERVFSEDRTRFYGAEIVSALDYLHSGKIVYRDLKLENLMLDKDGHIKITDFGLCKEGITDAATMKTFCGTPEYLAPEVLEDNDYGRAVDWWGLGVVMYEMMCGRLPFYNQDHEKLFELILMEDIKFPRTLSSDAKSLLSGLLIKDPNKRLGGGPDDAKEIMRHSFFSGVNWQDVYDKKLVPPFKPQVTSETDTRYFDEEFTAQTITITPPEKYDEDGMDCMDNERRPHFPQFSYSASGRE
T2 sequence (Q06187 whole entry): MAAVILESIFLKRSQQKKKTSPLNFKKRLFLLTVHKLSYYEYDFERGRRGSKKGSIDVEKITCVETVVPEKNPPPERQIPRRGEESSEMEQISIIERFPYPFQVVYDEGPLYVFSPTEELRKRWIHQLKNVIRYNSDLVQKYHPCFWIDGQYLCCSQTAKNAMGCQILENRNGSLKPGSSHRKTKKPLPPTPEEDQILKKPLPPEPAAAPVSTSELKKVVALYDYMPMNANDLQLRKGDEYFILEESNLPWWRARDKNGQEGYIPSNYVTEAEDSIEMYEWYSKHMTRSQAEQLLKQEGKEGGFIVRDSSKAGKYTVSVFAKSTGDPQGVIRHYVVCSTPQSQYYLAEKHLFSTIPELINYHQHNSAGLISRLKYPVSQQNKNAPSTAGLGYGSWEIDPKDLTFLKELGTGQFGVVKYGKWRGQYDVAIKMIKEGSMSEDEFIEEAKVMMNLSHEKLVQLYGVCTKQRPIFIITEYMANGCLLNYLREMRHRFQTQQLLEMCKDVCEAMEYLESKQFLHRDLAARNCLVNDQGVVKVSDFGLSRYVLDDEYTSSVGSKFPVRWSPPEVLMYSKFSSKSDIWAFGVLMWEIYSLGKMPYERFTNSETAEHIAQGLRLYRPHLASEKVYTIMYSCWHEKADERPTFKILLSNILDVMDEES
T1 sequence (P15056 whole entry): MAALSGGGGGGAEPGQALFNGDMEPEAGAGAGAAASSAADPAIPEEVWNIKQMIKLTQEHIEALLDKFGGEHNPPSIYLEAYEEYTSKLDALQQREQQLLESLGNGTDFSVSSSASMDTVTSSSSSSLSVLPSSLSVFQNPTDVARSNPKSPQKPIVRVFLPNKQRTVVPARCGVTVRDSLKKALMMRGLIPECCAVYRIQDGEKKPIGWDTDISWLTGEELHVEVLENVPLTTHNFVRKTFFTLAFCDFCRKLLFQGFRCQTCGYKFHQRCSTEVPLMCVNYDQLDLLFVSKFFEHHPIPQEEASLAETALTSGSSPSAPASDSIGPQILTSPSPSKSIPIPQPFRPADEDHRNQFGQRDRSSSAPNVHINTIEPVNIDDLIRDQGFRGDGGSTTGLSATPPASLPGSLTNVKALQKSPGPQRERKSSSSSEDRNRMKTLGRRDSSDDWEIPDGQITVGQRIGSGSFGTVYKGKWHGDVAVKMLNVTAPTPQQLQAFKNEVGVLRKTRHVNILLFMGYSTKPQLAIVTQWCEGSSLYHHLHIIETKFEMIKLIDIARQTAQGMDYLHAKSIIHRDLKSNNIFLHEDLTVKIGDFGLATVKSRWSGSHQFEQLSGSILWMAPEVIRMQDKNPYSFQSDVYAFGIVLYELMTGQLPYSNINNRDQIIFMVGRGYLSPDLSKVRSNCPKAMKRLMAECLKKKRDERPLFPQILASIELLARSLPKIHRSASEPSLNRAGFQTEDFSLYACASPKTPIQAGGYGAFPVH
T3 sequence (P04049 whole entry): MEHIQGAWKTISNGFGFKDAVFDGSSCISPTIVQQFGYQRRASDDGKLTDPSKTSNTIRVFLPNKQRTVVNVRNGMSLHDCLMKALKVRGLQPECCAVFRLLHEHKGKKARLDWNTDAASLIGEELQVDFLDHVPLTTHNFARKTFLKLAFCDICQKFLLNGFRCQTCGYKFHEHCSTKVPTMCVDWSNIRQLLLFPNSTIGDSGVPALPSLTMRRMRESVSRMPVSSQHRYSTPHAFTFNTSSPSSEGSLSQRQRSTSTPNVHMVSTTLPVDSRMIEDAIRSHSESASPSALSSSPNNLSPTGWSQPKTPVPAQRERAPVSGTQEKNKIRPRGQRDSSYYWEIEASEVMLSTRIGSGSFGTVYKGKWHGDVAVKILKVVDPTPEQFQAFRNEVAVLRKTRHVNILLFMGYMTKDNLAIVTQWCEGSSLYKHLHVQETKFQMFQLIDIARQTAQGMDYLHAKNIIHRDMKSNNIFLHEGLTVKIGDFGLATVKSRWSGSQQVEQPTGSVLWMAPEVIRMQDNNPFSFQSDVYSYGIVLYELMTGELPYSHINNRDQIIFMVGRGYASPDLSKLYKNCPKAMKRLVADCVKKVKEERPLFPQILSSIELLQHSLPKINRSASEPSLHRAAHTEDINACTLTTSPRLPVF

| SMILES | IC50 [1] | IC50 [2] | IC50 [3] | IC50 [4] | IC50 [5] |
| --- | --- | --- | --- | --- | --- |
| Nc1cccc(-c2ccnc3[nH]cc(C(=O)c4ccccc4F)c23)c1 [Compound P-0022] | – | ≤ 10 µM | – | ≤ 10 µM | – |
| CC(=O)Nc1cccc(-c2cnc3[nH]cc(C(=O)c4cc(O)ccc4F)c3c2)c1 [Compound P-0001] | ≤ 10 µM | – | ≤ 10 µM | ≤ 10 µM | ≤ 10 µM |
| NC(=O)c1ccc(-c2ccnc3[nH]cc(C(=O)c4cc(F)ccc4F)c23)cc1 [Compound P-0013] | – | ≤ 10 µM | – | ≤ 10 µM | – |
| O=C(c1cccc(O)c1)c1c[nH]c2ncc(Br)cc12 [Compound P-0019] | ≤ 10 µM | ≤ 10 µM | – | ≤ 10 µM | ≤ 10 µM |
| O=C(c1cccc(O)c1)c1c[nH]c2ncccc12 [Compound P-0011] | – | ≤ 10 µM | – | ≤ 10 µM | – |
| CC(=O)Nc1cccc(-c2cnc3[nH]cc(C(=O)c4cccc(O)c4F)c3c2)c1 [Compound P-0035, N-{3-[3-(2-Fluoro-3-hydroxy-benzoyl)-1H-pyrrolo[2,3-b]pyridin-5-yl]-phenyl}-acetamide] | ≤ 10 µM | – | ≤ 10 µM | ≤ 10 µM | ≤ 10 µM |
| Nc1ccnc2[nH]cc(C(=O)c3ccccc3)c12 [Compound P-0029] | – | ≤ 10 µM | – | ≤ 10 µM | – |
| Oc1cc(O)cc(Cc2c[nH]c3ncc(-c4ccsc4)cc23)c1 [Compound P-0093] | ≤ 10 µM | ≤ 10 µM | – | ≤ 10 µM | – |
| O=C(O)/C=C/c1cccc(-c2cnc3[nH]cc(C(=O)c4cc(O)ccc4F)c3c2)c1 [Compound P-0010] | ≤ 10 µM | ≤ 10 µM | ≤ 10 µM | ≤ 10 µM | – |
| Nc1cccc(-c2cnc3[nH]cc(C(=O)c4cccc(O)c4)c3c2)c1 [Compound P-0003] | ≤ 10 µM | – | – | ≤ 10 µM | ≤ 10 µM |
| O=C(c1cc(O)ccc1F)c1c[nH]c2ncc(-c3ccccc3)cc12 [Compound P-0045] | ≤ 10 µM | ≤ 10 µM | ≤ 10 µM | ≤ 10 µM | – |
| Cc1c(O)cccc1C(=O)c1c[nH]c2ncc(-c3cccs3)cc12 [Compound P-0114, (3-Hydroxy-2-methyl-phenyl)-(5-thiophen-2-yl-1H-pyrrolo[2,3b]pyridin-3-yl)-methanone] | ≤ 10 µM | – | ≤ 10 µM | ≤ 10 µM | ≤ 10 µM |
| Cc1c(O)cccc1C(=O)c1c[nH]c2ncc(-c3ccccc3)cc12 [Compound P-0016, (3-Hydroxy-2-methyl-phenyl)-(5-phenyl-1H-pyrrolo[2,3b]pyridin-3-yl)-methanone] | ≤ 10 µM | ≤ 10 µM | ≤ 10 µM | ≤ 10 µM | – |
| O=C(c1cccc(O)c1)c1c[nH]c2ncc(-c3cccnc3)cc12 [Compound P-0048] | – | ≤ 10 µM | – | ≤ 10 µM | ≤ 10 µM |
| Cn1cc(C(F)(F)F)c(-c2ccc(S(=O)(=O)NCc3c[nH]c4ncccc34)s2)n1 [Compound P-0041] | ≤ 10 µM | ≤ 10 µM | – | ≤ 10 µM | ≤ 10 µM |
| Oc1ccc(F)c(C(O)c2c[nH]c3ncc(-c4cccnc4)cc23)c1F (stereo not shown) [Compound P-0009, 2,4-difluoro-3-[hydroxy-(5-pyridin-3-yl-1H-pyrrolo[2,3-b]pyridin-3-yl)-methyl]-phenol] | ≤ 10 µM | ≤ 10 µM | ≤ 10 µM | ≤ 10 µM | – |
| Cc1ccc(F)cc1C(=O)c1c[nH]c2ncc(-c3ccc(C(N)=O)cc3)cc12 [Compound P-0050] | ≤ 10 µM | ≤ 10 µM | – | ≤ 10 µM | – |
| CC(=O)Nc1cccc(-c2ccnc3[nH]cc(C(=O)c4ccccc4F)c23)c1 [Compound P-0070] | – | ≤ 10 µM | – | ≤ 10 µM | – |

The next lines start with the values.

| IC50 [1] | IC50 [2] | IC50 [3] | IC50 [4] | IC50 [5] | SMILES |
| --- | --- | --- | --- | --- | --- |
| ≤ 10 µM | ≤ 10 µM | ≤ 10 µM | ≤ 10 µM | – | Oc1cccc(Cc2c[nH]c3ncc(-c4cccs4)cc23)c1F [Compound P-0052, 2-Fluoro-3-(5-thiophen-2-yl-1H-pyrrolo[2,3-b]pyridin-3-ylmethyl)-phenol] |
| ≤ 10 µM | ≤ 10 µM | – | ≤ 10 µM | – | O=C(c1cc(O)ccc1F)c1c[nH]c2ncc(Br)cc12 [Compound P-0068, (5-Bromo-1H-pyrrolo[2,3-b]pyridin-3-yl)-(2-fluoro-5-hydroxy-phenyl)-methanone] |
| ≤ 10 µM | ≤ 10 µM | ≤ 10 µM | ≤ 10 µM | ≤ 10 µM | Cc1c(O)cccc1C(=O)c1c[nH]c2ncc(Br)cc12 [Compound P-0055, (5-Bromo-1H-pyrrolo[2,3-b]pyridin-3-yl)-(3-hydroxy-2-methyl-phenyl)-methanone] |
| ≤ 10 µM | ≤ 10 µM | ≤ 10 µM | ≤ 10 µM | ≤ 10 µM | O=C(c1ccc(O)cc1Cl)c1c[nH]c2ncccc12 [Compound P-0021] |
| ≤ 10 µM | – | ≤ 10 µM | ≤ 10 µM | ≤ 10 µM | CS(=O)(=O)Nc1cccc(-c2cnc3[nH]cc(C(=O)c4cccc(O)c4F)c3c2)c1 [Compound P-0038, N-{3-[3-(2-Fluoro-3-hydroxy-benzoyl)-1H-pyrrolo[2,3-b]pyridin-5-yl]-phenyl}-methanesulfonamide] |
| ≤ 10 µM | ≤ 10 µM | ≤ 10 µM | ≤ 10 µM | – | CCCS(=O)(=O)Nc1ccc(F)c(C(=O)c2c[nH]c3ncccc23)c1F [Compound P-0007, Propane-1-sulfonic acid [2,4-difluoro-3-(1H-pyrrolo[2,3-b]pyridine-3-carbonyl)-phenyl]-amide] |
| ≤ 10 µM | ≤ 10 µM | – | ≤ 10 µM | ≤ 10 µM | O=C(c1cccc(O)c1F)c1c[nH]c2ncc(Br)cc12 [Compound P-0067, (5-bromo-1H-pyrrolo[2,3-b]pyridin-3-yl)-(2-fluoro-3-hydroxy-phenyl)-methanone] |
| ≤ 10 µM | ≤ 10 µM | ≤ 10 µM | ≤ 10 µM | – | CS(=O)(=O)c1cccc(-c2cnc3[nH]cc(C(=O)c4c(F)ccc(F)c4F)c3c2)c1 [Compound P-0102, [5-(3-Methanesulfonyl-phenyl)-1H-pyrrolo[2,3-b]pyridin-3-yl]-(2,3,6-trifluoro-phenyl)-methanone] |
| – | ≤ 10 µM | ≤ 10 µM | ≤ 10 µM | – | COc1ccc(C(=O)c2c[nH]c3ncc(-c4cccc(/C=C/C(=O)O)c4)cc23)c(Cl)c1 [Compound P-0015] |
| ≤ 10 µM | ≤ 10 µM | ≤ 10 µM | ≤ 10 µM | – | COc1ccc(F)c(C(=O)c2c[nH]c3ncc(-c4cccnc4)cc23)c1 [Compound P-0090] |
| ≤ 10 µM | – | ≤ 10 µM | ≤ 10 µM | ≤ 10 µM | NC(=O)c1cccc(-c2cnc3[nH]cc(C(=O)c4cccc(O)c4F)c3c2)c1 [Compound P-0034, 3-[3-(2-Fluoro-3-hydroxy-benzoyl)-1H-pyrrolo[2,3-b]pyridin-5-yl]benzamide] |
| ≤ 10 µM | – | ≤ 10 µM | ≤ 10 µM | ≤ 10 µM | O=C(c1cccc(O)c1F)c1c[nH]c2ncc(-c3ccccc3)cc12 [Compound P-0036, (2-fluoro-3-hydroxy-phenyl)-(5-phenyl-1H-pyrrolo[2,3-b]pyridin-3-yl)-methanone] |
| ≤ 10 µM | ≤ 10 µM | ≤ 10 µM | ≤ 10 µM | – | CCCS(=O)(=O)Nc1ccc(F)c(C(=O)c2c[nH]c3ncc(-c4cccnc4)cc23)c1F [Compound P-0088, Propane-1-sulfonic acid [2,4-difluoro-3-(5-pyridin-3-yl-1H-pyrrolo[2,3-b]pyridine-3-carbonyl)-phenyl]-amide] |
| – | ≤ 10 µM | – | ≤ 10 µM | – | Cc1ccccc1C(=O)c1c[nH]c2nccc(-c3cccc(NS(C)(=O)=O)c3)c12 [Compound P-0109] |
